According to patent US5840927A, “Sesquiterpene compounds” (Toa Gosei Co., Ltd., priority 1995, dated 1998):
≈ marks a conversion by molar mass, not a printed value.

Experiments:
[1] = tested on: Candida albicans TIMM1623; test: MIC assay of anti-fungal activity in vitro, Candida albicans TIMM1623; format: cell-based; details: 24 h, C. albicans TIMM1623, Yeast Morphology Ager, serial double dilution, 30° C., 1 day
Method: (§1) In the following, examples of anti-fungal assays are described.
(§2) In the assay standard microbial strains supplied from Research Center for Eumyceta and Mycosis, Teikyo University, Japan, were used as the test fungi, and Yeast Morphology Ager (DIFCO) was used as the medium for the drug sensitivity assays.
(§3) Firstly, the given fungus was smeared on the potato-dextrose agar media (Nissui Seiyaku) slants, incubated at 30° C. for 1 day (for Candida albicans and Cryptococcus neoformans) or for 4 days (for Aspergillus nigar and Aspergillus fumigatus), and then the fungus grown on the slant was washed out with a sterilized physiological salt solution containing 0.1% Tween 80. The washed out fungus was passed through a filter with 15 μm bores, and, after the number of fungus colonies were counted on the blood cell counting plate, a suspension containing 10^5 CFU/ml of fungus was prepared to be used as the inoculation solution. After this solution (0.02 ml) was inoculated to Yeast Morphology Ager containing a drug at concentrations in a serial double dilution, it was cultured at 30° C. for either 1 day or 4 days.
(§4) MIC assay of cryptoporic acid H was carried out by the similar procedure as described above.

[2] = tested on: Saccharomyces cerevisiae JCM2216; test: MIC assay, Saccharomyces cerevisiae JCM2216; format: cell-based; details: similar procedure as described above
[3] = tested on: Aspergillus fumigatus TIMM0063; test: MIC assay of anti-fungal activity in vitro, Aspergillus fumigatus TIMM0063; format: cell-based; details: 96 h, A. fumigatus TIMM0063, Yeast Morphology Ager, serial double dilution, 30° C., 4 days
Method: as §1, §2, §3, §4

[4] = tested on: Aspergillus niger TIMM0113; test: MIC assay of anti-fungal activity in vitro, Aspergillus niger TIMM0113; format: cell-based; details: 96 h, A. niger TIMM0113, Yeast Morphology Ager, serial double dilution, 30° C., 4 days
Method: as §1, §2, §3, §4

Solubility = format: physicochemical
C. neoformans TIMM0354 = test: MIC assay of anti-fungal activity in vitro, Cryptococcus neoformans TIMM0354; format: cell-based; details: 24 h, Yeast Morphology Ager, serial double dilution, 30° C., 1 day
Method: as §1, §2, §3

[5] = tested on: Candida albicans, Cryptococcus neoformans, Aspergillus nigar and Aspergillus fumigatus; test: anti-microbial activity in vitro against test fungi (overall statement); format: cell-based; details: stated in words
Method: as §1, §2, §3

[6] = in methanol, acetone, and ethyl acetate

MIC [1] [µg/mL]	MIC [2] [µg/mL]	MIC [3] [µg/mL]	MIC [4] [µg/mL]	Solubility (Solubility; in chloroform)	Solubility (Solubility; [6])	Solubility (Solubility; in water)	MIC (C. neoformans TIMM0354) [µg/mL]	SMILES	anti-fungal activities [5]
200 (≈ 504 µM)	200 (≈ 504 µM)	200 (≈ 504 µM)	200 (≈ 504 µM)	–	–	–	–	C=C1CC[C@H]2C(C)(C)CCC[C@]2(C)[C@H]1COC(C(=O)O)C(CC(=O)O)C(=O)O (some centres unmarked) [Cryptoporic acid H, cryptoporic acid H]	–
100 (≈ 156 µM)	–	50 (≈ 77.8 µM)	50 (≈ 77.8 µM)	soluble	readily soluble	slightly soluble	50 (≈ 77.8 µM)	C=C1CC[C@H]2C(C)(C)CCC[C@]2(C)[C@H]1COC(C(=O)OC)C(CC(=O)O)C(=O)O[C@H]1CC(C)(C)[C@@H]2CC=C(C=O)[C@H](C=O)[C@@]2(C)C1 (some centres unmarked) [TG101]	confirming their anti-fungal activities
–	–	–	–	soluble	readily soluble	slightly soluble	–	C=C1CC[C@H]2C(C)(C)CCC[C@]2(C)[C@H]1COC(C(=O)O[C@H]1CC(C)(C)[C@@H]2CC=C(C=O)[C@H](C=O)[C@@]2(C)C1)C(CC(=O)O)C(=O)OC (some centres unmarked) [TG102]	–
100 (≈ 155 µM)	–	25 (≈ 38.8 µM)	100 (≈ 155 µM)	soluble	readily soluble	slightly soluble	50 (≈ 77.5 µM)	C=C1CC[C@H]2C(C)(C)CCC[C@]2(C)[C@H]1COC(C(=O)OC)C(CC(=O)O)C(=O)O[C@H]1CC(C)(C)[C@@H]2CC=C3COC(O)[C@@H]3[C@@]2(C)C1 (some centres unmarked) [TG103]	confirming their anti-fungal activities
–	–	–	–	soluble	readily soluble	slightly soluble	–	C=C1CC[C@H]2C(C)(C)CCC[C@]2(C)[C@H]1COC(C(=O)O[C@H]1CC(C)(C)[C@@H]2CC=C3COC(O)[C@@H]3[C@@]2(C)C1)C(CC(=O)O)C(=O)OC (some centres unmarked) [TG104]	–
